Data from US20210115104A1, “AMYLIN ANALOGUES” (Zealand Pharma A/S, priority 2015, published 2021).
*1 amine or outer side, *2 acyl side, *3 side chain or, on linkers, in order; H or OH if unused. Where a SMILES comes first, the peptide text is derived from it. Bridges are numbered along the chain shown (N, C = ends). [ ]: non-standard residue; d: D form. The star is where a group is joined. C20 diacid = O=C(O)CCCCCCCCCCCCCCCCCCC(=O)*; γGlu = O=C(O)[C@H](CCC(=O)[*:2])N[*:1]; Hyp = O=C(O)[C@@H]1C[C@@H](O)CN1; NMeI = CC[C@H](C)[C@H](NC)C(=O)O; Aad = N[C@@H](CCCC(=O)O)C(=O)O; Orn = NCCC[C@H](N)C(=O)O; Sar = CNCC(=O)O

Legend:
[1] = Assessment of physical stability (Thioflavin T fibrillation); assay type: physicochemical; parameters: key: FND = fibrillation not detected; FD = fibrillation detected; settings: 1 mg/ml, 40° C., ThT; for Fibrillation pH 4.0 (Ac): 50 mM acetate buffer pH 4.0, 96 hours; for Fibrillation pH 7.0 (His): 50 mM histidine buffer pH 7.0, 96 hours; for Fibrillation pH 7.0 (Phos.): 50 mM phosphate buffer pH 7.0, 96 hours
Summary of the method: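 Fibrillation lag-time, in hours, taken where regressions of the initial stable phase and the growth phase intersect. ThT (40 μM) fluorescence monitored at 40 °C for 96 h, 10-min reads each preceded by 300 s mixing. Peptide at 1 mg/ml in 50 mM buffers: phosphate or histidine pH 7.0, acetate pH 4.0.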

[2] = molecular target: T1, human amylin receptor 3 (hAMYR3), hCTR2 co-expressed with hRAMP3 (Homo sapiens, UniProt O60896+P30988); assay: hAMYR3 cAMP assay (AlphaScreen) in COS7 cells; assay type: cell-based; settings: cAMP induction, COS7 cells expressing hAMYR3; Table 1; read-out: hAMYR3 EC50
T1 construct: expressed in transfected cells
T1 sequence (P30988 25-474): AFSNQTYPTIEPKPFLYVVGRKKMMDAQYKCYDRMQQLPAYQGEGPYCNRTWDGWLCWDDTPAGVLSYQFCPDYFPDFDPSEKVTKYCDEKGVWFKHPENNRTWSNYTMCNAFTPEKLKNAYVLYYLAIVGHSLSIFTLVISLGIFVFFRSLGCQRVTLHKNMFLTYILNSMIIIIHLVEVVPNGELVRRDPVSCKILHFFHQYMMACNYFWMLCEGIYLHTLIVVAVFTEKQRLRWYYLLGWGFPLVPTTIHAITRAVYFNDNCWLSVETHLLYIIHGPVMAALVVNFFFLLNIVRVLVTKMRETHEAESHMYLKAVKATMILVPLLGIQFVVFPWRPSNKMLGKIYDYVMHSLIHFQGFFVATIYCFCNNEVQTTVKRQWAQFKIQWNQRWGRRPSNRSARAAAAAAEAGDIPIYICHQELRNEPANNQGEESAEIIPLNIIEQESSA
T1 sequence (O60896 24-148 partner): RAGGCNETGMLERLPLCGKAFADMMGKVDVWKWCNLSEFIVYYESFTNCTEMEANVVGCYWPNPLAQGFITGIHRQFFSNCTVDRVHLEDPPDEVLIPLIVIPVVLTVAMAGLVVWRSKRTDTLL
Summary of the method: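 EC50 values derive from 4PL curve fits of cAMP (AlphaScreen) in lysates of RAMP-naive COS7 cells stably carrying hCTR2 plus hRAMP3. Peptide dilution series were applied for 15 min at 37 °C in pH 7.4 Tyrode buffer containing 100 µM IBMX and 0.1% casein.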

[3] = molecular target: T2, human calcitonin receptor (hCTR2) (Homo sapiens, UniProt P30988); assay: hCTR2 cAMP assay (AlphaScreen) in COS7 cells; assay type: cell-based; settings: cAMP induction, COS7 cells expressing hCTR2; Table 1; read-out: hCTR2 EC50
T2 construct: expressed in transfected cells
T2 sequence (P30988 25-474): T1 sequence (P30988 25-474)
Summary of the method: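 cAMP induction, read by AlphaScreen after lysis, gives EC50 values via 4PL curve fitting. Peptides were applied at rising concentrations for 15 min at 37 °C, with IBMX and 0.1% casein in HEPES-buffered Tyrode pH 7.4, to COS7 cells (no endogenous RAMPs) stably expressing human CTR2.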

[4] = Assessment of chemical stability (RP-HPLC normalized purity); assay type: physicochemical; settings: 7 days, 40° C., Table 1; for Normalized purity after 7 days, 40° C., pH 4: pH 4, 0.2 mg/ml; for Normalized purity after 7 days, 40° C., pH 6: pH 6, 0.2 mg/ml; for Normalized purity after 7 days, 40° C., pH 7.5: pH 7.5, 0.2 mg/ml; for Normalized purity after 7 days, 40° C., pH 9: pH 9, 0.2 mg/ml
Summary of the method: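 Purity after 7 days at 40° C is expressed relative to T=0 (set to 100) for each pH. Samples at 0.2 mg/ml, pH 4, 6, 7.5 or 9, analyzed by RP-HPLC with UV 220 nm on C8 (ammonium formate) or C18 (TFA) gradients.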

Fibrillation pH 4.0 (Ac) [1] | Fibrillation pH 7.0 (His) [1] | Fibrillation pH 7.0 (Phos.) [1] | EC50 [2] [nM] | EC50 [3] [nM] | Normalized purity after 7 days, 40° C., pH 4 [4] | Normalized purity after 7 days, 40° C., pH 6 [4] | Normalized purity after 7 days, 40° C., pH 7.5 [4] | Normalized purity after 7 days, 40° C., pH 9 [4] | SMILES
FND | FND | FND | 0.11 | 0.08 | A (A = >90%) | B (B = 70-90%) | B (B = 70-90%) | B (B = 70-90%) | CC[C@H](C)[C@@H](C(=O)N[C@@H](CC(C)C)C(=O)N[C@@H](CO)C(=O)N[C@@H](CO)C(=O)N[C@H](C(=O)N[C@@H](CCC(=O)O)C(=O)N[C@H](C(=O)NCC(=O)N[C@@H](CO)C(=O)N[C@@H](CCCN)C(=O)N[C@H](C(=O)N1C[C@H](O)C[C@H]1C(N)=O)[C@@H](C)O)C(C)C)[C@@H](C)O)N(C)C(=O)[C@H](C)NC(=O)CN(C)C(=O)[C@H](Cc1ccccc1)NC(=O)[C@H](CO)NC(=O)[C@H](CO)NC(=O)[C@H](CCCNC(=N)N)NC(=O)[C@H](CCC(N)=O)NC(=O)[C@H](CC(C)C)NC(=O)[C@H](Cc1ccccc1)NC(=O)[C@H](Cc1c[nH]cn1)NC(=O)[C@H](C)NC(=O)[C@H](CC(C)C)NC(=O)[C@H](CCCNC(=N)N)NC(=O)[C@H](CCC(=O)O)NC(=O)[C@@H](NC(=O)[C@H](C)NC(=O)[C@@H]1CSSC[C@H](NC(=O)[C@H](CCCNC(=N)N)NC(=O)CC[C@H](NC(=O)CCCCCCCCCCCCCCCCCCC(=O)O)C(=O)O)C(=O)NCC(=O)N[C@@H]([C@@H](C)O)C(=O)N[C@@H](C)C(=O)N[C@@H]([C@@H](C)O)C(=O)N1)[C@@H](C)O [Compound 51, [19CD]-isoGlu-R-C( )-GTAT-C( )-ATERLAHFLQRSSF-Gly(Me)-A-Ile(Me)-LSSTEVGS-Orn-T-Hyp-NH2] ({C20 diacid-γGlu}-RCGTATCATERLAHFLQRSSF[Sar]A[NMeI]LSSTEVGS[Orn]T[Hyp]-NH2; disulfide 2-7)
FND | FND | FND | 0.09 | 0.07 | A (A = >90%) | B (B = 70-90%) | B (B = 70-90%) | B (B = 70-90%) | CC[C@H](C)[C@@H](C(=O)N[C@@H](CC(C)C)C(=O)N[C@@H](CO)C(=O)N[C@@H](CO)C(=O)N[C@H](C(=O)N[C@@H](CCC(=O)O)C(=O)N[C@H](C(=O)NCC(=O)N[C@@H](CO)C(=O)NCC(=O)N[C@H](C(=O)N1C[C@H](O)C[C@H]1C(N)=O)[C@@H](C)O)C(C)C)[C@@H](C)O)N(C)C(=O)[C@H](C)NC(=O)CN(C)C(=O)[C@H](Cc1ccccc1)NC(=O)[C@H](CO)NC(=O)[C@H](CO)NC(=O)[C@H](CCCNC(=N)N)NC(=O)[C@H](CCC(N)=O)NC(=O)[C@H](CC(C)C)NC(=O)[C@H](Cc1ccccc1)NC(=O)[C@H](Cc1c[nH]cn1)NC(=O)[C@H](C)NC(=O)[C@H](CC(C)C)NC(=O)[C@H](CCCNC(=N)N)NC(=O)[C@H](CCC(=O)O)NC(=O)[C@@H](NC(=O)[C@H](C)NC(=O)[C@@H]1CSSC[C@H](NC(=O)[C@H](CCCNC(=N)N)NC(=O)CC[C@H](NC(=O)CCCCCCCCCCCCCCCCCCC(=O)O)C(=O)O)C(=O)NCC(=O)N[C@@H]([C@@H](C)O)C(=O)N[C@@H](C)C(=O)N[C@@H]([C@@H](C)O)C(=O)N1)[C@@H](C)O [Compound 52, [19CD]-isoGlu-R-C( )-GTAT-C( )-ATERLAHFLQRSSF-Gly(Me)-A-Ile(Me)-LSSTEVGSGT-Hyp-NH2] ({C20 diacid-γGlu}-RCGTATCATERLAHFLQRSSF[Sar]A[NMeI]LSSTEVGSGT[Hyp]-NH2; disulfide 2-7)
FND | FND | FND | 0.13 | 0.14 | A (A = >90%) | A (A = >90%) | B (B = 70-90%) | B (B = 70-90%) | CC[C@H](C)[C@@H](C(=O)N[C@@H](CC(C)C)C(=O)N[C@@H](CO)C(=O)N[C@@H](CO)C(=O)N[C@H](C(=O)N[C@@H](CCC(=O)O)C(=O)N[C@H](C(=O)NCC(=O)N[C@@H](CO)C(=O)N[C@@H](CCCC(=O)O)C(=O)N[C@H](C(=O)N1C[C@H](O)C[C@H]1C(N)=O)[C@@H](C)O)C(C)C)[C@@H](C)O)N(C)C(=O)[C@H](C)NC(=O)CN(C)C(=O)[C@H](Cc1ccccc1)NC(=O)[C@H](CO)NC(=O)[C@H](CO)NC(=O)[C@H](CCCNC(=N)N)NC(=O)[C@H](CCC(N)=O)NC(=O)[C@H](CC(C)C)NC(=O)[C@H](Cc1ccccc1)NC(=O)[C@H](Cc1c[nH]cn1)NC(=O)[C@H](C)NC(=O)[C@H](CC(C)C)NC(=O)[C@H](CCCNC(=N)N)NC(=O)[C@H](CCC(=O)O)NC(=O)[C@@H](NC(=O)[C@H](C)NC(=O)[C@@H]1CSSC[C@H](NC(=O)[C@H](CCCNC(=N)N)NC(=O)CC[C@H](NC(=O)CCCCCCCCCCCCCCCCCCC(=O)O)C(=O)O)C(=O)NCC(=O)N[C@@H]([C@@H](C)O)C(=O)N[C@@H](C)C(=O)N[C@@H]([C@@H](C)O)C(=O)N1)[C@@H](C)O [Compound 53, [19CD]-isoGlu-R-C( )-GTAT-C( )-ATERLAHFLQRSSF-Gly(Me)-A-Ile(Me)-LSSTEVGS-Aad-T-Hyp-NH2] ({C20 diacid-γGlu}-RCGTATCATERLAHFLQRSSF[Sar]A[NMeI]LSSTEVGS[Aad]T[Hyp]-NH2; disulfide 2-7)
FND | FND | FND | 0.14 | 0.08 | A (A = >90%) | A (A = >90%) | B (B = 70-90%) | B (B = 70-90%) | CC[C@H](C)[C@@H](C(=O)N[C@@H](CC(C)C)C(=O)N[C@@H](CO)C(=O)N[C@@H](CO)C(=O)N[C@H](C(=O)N[C@@H](CCC(=O)O)C(=O)N[C@H](C(=O)NCC(=O)N[C@@H](CO)C(=O)N[C@@H](CC(N)=O)C(=O)N[C@H](C(=O)N1C[C@H](O)C[C@H]1C(N)=O)[C@@H](C)O)C(C)C)[C@@H](C)O)N(C)C(=O)[C@H](C)NC(=O)CN(C)C(=O)[C@H](Cc1ccccc1)NC(=O)[C@H](CO)NC(=O)[C@H](CO)NC(=O)[C@H](CCCNC(=N)N)NC(=O)[C@H](CCC(N)=O)NC(=O)[C@H](CC(C)C)NC(=O)[C@H](Cc1ccccc1)NC(=O)[C@H](CC(=O)O)NC(=O)[C@H](C)NC(=O)[C@H](CC(C)C)NC(=O)[C@H](CCCNC(=N)N)NC(=O)[C@H](CCC(=O)O)NC(=O)[C@@H](NC(=O)[C@H](C)NC(=O)[C@@H]1CSSC[C@H](NC(=O)[C@H](CCCNC(=N)N)NC(=O)CC[C@H](NC(=O)CCCCCCCCCCCCCCCCCCC(=O)O)C(=O)O)C(=O)NCC(=O)N[C@@H]([C@@H](C)O)C(=O)N[C@@H](C)C(=O)N[C@@H]([C@@H](C)O)C(=O)N1)[C@@H](C)O [Compound 54, [19CD]-isoGlu-R-C( )-GTAT-C( )-ATERLADFLQRSSF-Gly(Me)-A-Ile(Me)-LSSTEVGSNT-Hyp-NH2] ({C20 diacid-γGlu}-RCGTATCATERLADFLQRSSF[Sar]A[NMeI]LSSTEVGSNT[Hyp]-NH2; disulfide 2-7)
